The subject of this test is atherosclerotic lesions on thoracic and abdominal aorta. Put plainly: Atherosclerotic lesions in rabbits fed a hypercholesterolemic diet. The format is in vivo, New Zealand rabbits. The following applies: hypercholesterolemic diet (0.2% w/w cholesterol), substance in diet, 8 week-treatment, aorta stained with Sudan IV. The source says: The complexes of the invention dose-dependently prevent or reduce the formation of, atherosclerotic plaques. The activity was evidenced in rabbits fed with a hypercholesterolemic diet so as to induce atherosclerotic lesions similar to the human ones at the vasal level, particularly at the aortal arch, ventral aorta, carotids and cerebral vessels. In said model, the above mentioned phospholipid complexes change the macro- and microscopical vascular condition reducing, compared with untreated animals, both the number and the severity of the atheromatous plagues, with surprising vascular-tissutal benefit.
32 New Zealand rabbits were divided in 4 groups of 8 animals each, and treated as follows:
Group 1): Control, normal diet
Group 2): Hypercholesterolemic diet (0.2% w/w cholesterol)
Group 3): Hypercholesterolemic diet+phospholipid complex of proanthocyanidin A2 extract (0.2% cholesterol+2% w/w complex of Example 1).
Group 4): Hypercholesterolemic diet+proanthocyanidin A2 extract (0.2% cholesterol+amount of proanthocyanidin A2 equivalent to that present in 2% w/w of the complex of Example 1). After 8 week-treatment, during which cholesterol, LDL/VLDL, HDL and triglycerids levels were measured, the animals were killed.
The number, size and distribution of the atherosclerotic lesions on thoracic and abdominal aorta were evaluated. […]

For the molecule `Oc1cc(O)c2c(c1)O[C@@]1(c3ccc(O)c(O)c3)Oc3cc(O)c4c(c3C2[C@H]1O)OC(c1ccc(O)c(O)c1)[C@H](O)C4` (stereo partly shown) [proanthocyanidin A2], the “area percent of the lesion” value worked out at 30%.

(Values after patent US6429202B1, “Phospholipid complexes of proanthocyanidin A2 as antiatherosclerotic agents” (Indena S.p.A., priority 1998, dated 2002).)
